Among the data in publication PMC9723620 (2022) are binding values, retold here.

The test system of experiment [1] is NEAT1_2 TH (RNA, triplex) AGGUGUUUCUUUUACUGAGUGCAGCCC/UGGCCGCACUCAGGUUUUGCUUUUCACCUUCCCAUCUGUGAAAGAGUGAGCAGGAAAAAGCAAAA
As to the kind of experiment: fluorescent intercalator displacement (FID) screen. The note with it: 100 mM KCl, 4 mM MgCl2, 20 mM Tris-HCl pH 7.0, 2% DMSO, TO-PRO displaced, RNA 0.25 μM, hit at 10 μM.

The test system of experiment [2] is NEAT1_2 TH (5' biotin-TEG, immobilized) (RNA, triplex) AGGUGUUUCUUUUACUGAGUGCAGCCC/UGGCCGCACUCAGGUUUUGCUUUUCACCUUCCCAUCUGUGAAAGAGUGAGCAGGAAAAAGCAAAA
Put plainly: grating-coupled interferometry (waveRAPID). The note with it: 150 mM NaCl, 4 mM MgCl2; 10 mM HEPES pH 7.4, 0.005% Tween-20, 1% DMSO, 25°C; tested at 10 μM.

The subject of experiment [3] is NEAT1_2 TH (RNA, triplex) AGGUGUUUCUUUUACUGAGUGCAGCCC/UGGCCGCACUCAGGUUUUGCUUUUCACCUUCCCAUCUGUGAAAGAGUGAGCAGGAAAAAGCAAAA
Put plainly: fluorescent intercalator displacement (FID). The note with it: 100 mM KCl, 4 mM MgCl2, 20 mM Tris-HCl pH 7.0, TO-PRO displaced, RNA 0.5 μM.

Experiment [4] deals with A-site RNA (RNA, rRNA) CGGCGUCACACCUCGGGGUGAAGUCGCCG
As to the kind of experiment: fluorescent intercalator displacement (FID). The note with it: 100 mM KCl, 4 mM MgCl2, 20 mM Tris-HCl pH 7.0, TO-PRO displaced, RNA 0.5 μM.

Experiment [5] has as its system fragment 1 (f1), biotinylated (RNA, single strand) AGGUGUUUCUUUUACUGAGUGCAGCCC
As to the kind of experiment: grating-coupled interferometry (waveRAPID). The note with it: 150 mM NaCl, 4 mM MgCl2; 10 mM HEPES pH 7.4, 0.005% Tween-20, 1% DMSO, 25°C; tested at 10 μM.

The test system of experiment [6] is fragment 2 (f2), biotinylated (RNA, other) UGGCCGCACUCAGGUUUUGCUUUUCACCUUCCCAUCUGUGAAAGAGUGAGCAGGAAAAAGCAAAA
Put plainly: grating-coupled interferometry (waveRAPID). The note with it: 150 mM NaCl, 4 mM MgCl2; 10 mM HEPES pH 7.4, 0.005% Tween-20, 1% DMSO, 25°C; tested at 10 μM.

The subject of experiment [7] is NEAT1_2 TH (RNA, triplex) AGGUGUUUCUUUUACUGAGUGCAGCCC/UGGCCGCACUCAGGUUUUGCUUUUCACCUUCCCAUCUGUGAAAGAGUGAGCAGGAAAAAGCAAAA
As to the kind of experiment: fluorescence increase on binding. The note with it: 100 mM KCl, 4 mM MgCl2; 20 mM Tris-HCl pH 7.0; RNA 0.5 μM, equimolar dye; 220.7-fold fluorescence increase.

Experiment [8] deals with A-site RNA (RNA, rRNA) CGGCGUCACACCUCGGGGUGAAGUCGCCG
As to the kind of experiment: fluorescence increase on binding. The note with it: 100 mM KCl, 4 mM MgCl2; 20 mM Tris-HCl pH 7.0; RNA 0.5 μM, equimolar dye; 116.3-fold fluorescence increase.

As for `O=C1c2c(O)ccc(O)c2C(=O)c2c(NCCNCCO)ccc(NCCNCCO)c21`, the binding entry in experiment [1] is listed as “yes”. `COc1ccc(Br)cc1S(=O)(=O)NC(=O)/C=C/c1ccccc1Cc1ccc2ccccc2c1`: the binding result in experiment [1] is given as “yes”. As to `O=C1Nc2ccc(I)cc2/C1=C/c1cc(Br)c(O)c(Br)c1`, the binding result in experiment [1] was “yes”. In the case of `CC(=O)c1c(O)c(C)c(O)c(Cc2c(O)c3c(c(C(=O)/C=C/c4ccccc4)c2O)OC(C)(C)C=C3)c1O`, the binding result in experiment [2] is recorded as “no”; in experiment [1] (not confirmed by GCI), “yes”. As for `O=c1c(O)c(-c2cc(O)c(O)c(O)c2)oc2cc(O)cc(O)c12`, the binding result in experiment [1] is “yes”. For `CN[C@@H]1[C@@H](O)[C@@H](O[C@@H]2[C@@H](O)[C@H](O[C@H]3O[C@H]([C@@H](C)O)[C@@H](O)[C@H](O)[C@H]3N)[C@@H](N)C[C@H]2N)OC[C@]1(C)O`, the binding result was “weak” in experiment [3] (fluorescence to 0.72, higher concentration only) and “yes” in experiment [4] (both concentrations).

As for `O=c1c(O)c(-c2ccc(O)c(O)c2)oc2cc(O)cc(O)c12`, in experiment [1], the binding entry was “yes”. Take `CC(=O)NC[C@H]1CN(c2ccc(N3CCOCC3)c(F)c2)C(=O)O1`: the binding result in experiment [4] (no effect at 50 μM) is “no”.

For the compound `Cc1cc(O)c2c(c1)C(=O)c1cc(O)cc(O)c1C2=O`, the figures for the binding entry in experiment [5], in experiment [6] and in experiment [1] were “no”, “no” and “yes”, respectively. As for `CNc1ncc(CN2CCCC(c3nc(-c4cccs4)cc(=O)[nH]3)C2)cn1` (centres unmarked), the binding result in experiment [3] (two concentrations) and in experiment [4] (two concentrations) was “no” in each case.

Turning to `NC[C@@H]1O[C@H](O[C@H]2[C@@H](O)[C@H](O[C@@H]3[C@@H](O)[C@H](N)C[C@H](N)[C@H]3O[C@H]3O[C@H](CO)[C@@H](O)[C@H](O)[C@H]3N)O[C@@H]2CO)[C@H](N)[C@@H](O)[C@@H]1O`, the binding result is listed as “yes” in experiment [3] (fluorescence 0.61 at 50, 0.34 at 500 μM); “yes” in experiment [4] (fluorescence to 0.08 at 50 and 500 μM). For `O=C(O)C1=CC(=C(c2ccc(O)c(C(=O)O)c2)c2ccc(O)c(C(=O)O)c2)C=CC1=O`, in experiment [1], the binding result is listed as “yes”. `C[n+]1c(C=C2C=CN(CCC[N+](C)(C)C)c3ccccc32)sc2ccccc21`: the binding entry in experiment [7] and in experiment [8] was “yes” in each case. On to `CC1(C)CC(Oc2ccc(-c3ccc(-c4cn[nH]c4)cc3O)nn2)CC(C)(C)N1`, for which the binding result in experiment [3] (at higher concentration) and in experiment [4] (at higher concentration) was “weak” throughout. As for `NCCOc1cc(C(=O)Nc2cc(OCCN)c3ccccc3n2)nc(C(=O)Nc2cc(OCCN)c3ccccc3n2)c1`, the binding entry in experiment [1] is “yes”. Consider `O=C(N[C@H](CO)[C@H](O)c1ccc([N+](=O)[O-])cc1)C(Cl)Cl`, for which the binding result in experiment [2], in experiment [3] (no effect at 50 μM) and in experiment [4] (no effect at 50 μM) was “no” each time.
